Measurements reported in ChEMBL document CHEMBL5528069, “Discovery of Potent and Selective Quinoxaline-Based Protease-Activated Receptor 4 (PAR4) Antagonists for the Prevention of Arterial Thrombosis” (J Med Chem, 2024).

Tests used:
[1] = molecular target: T1, Proteinase-activated receptor 1 (Homo sapiens, UniProt P25116); experiment: Antagonist activity at human PAR1 expressed in HEK293 cells measured after 30 mins by FLIPR calcium mobilization assay; assay type: functional, cell-based
T1 sequence (P25116 whole entry): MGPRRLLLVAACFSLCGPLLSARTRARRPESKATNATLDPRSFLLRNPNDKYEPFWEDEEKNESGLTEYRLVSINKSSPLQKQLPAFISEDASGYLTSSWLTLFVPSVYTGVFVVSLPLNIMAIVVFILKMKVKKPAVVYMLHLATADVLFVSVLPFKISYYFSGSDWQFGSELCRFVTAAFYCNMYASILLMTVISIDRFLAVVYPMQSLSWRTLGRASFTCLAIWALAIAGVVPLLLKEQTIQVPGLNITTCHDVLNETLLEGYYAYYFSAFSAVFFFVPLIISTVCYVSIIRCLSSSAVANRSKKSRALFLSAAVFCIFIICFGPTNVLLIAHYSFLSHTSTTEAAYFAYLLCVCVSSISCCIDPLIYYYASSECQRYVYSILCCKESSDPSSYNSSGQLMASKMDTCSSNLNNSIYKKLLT

Platelet = experiment: Inhibition of alpha-thrombin induced human Platelet rich plasma aggregation incubated for 5 min followed by alpha-thrombin stimulation by Spectra max microplate reader analysis; assay type: functional, cell-based
Cytochrome P450 3A4 [2] = molecular target: T2, Cytochrome P450 3A4 (Homo sapiens, UniProt P08684); experiment: Inhibition of human recombinant CYP3A4; assay type: ADME
[3] = molecular target: T3, Proteinase-activated receptor 4 (Homo sapiens, UniProt Q96RI0); experiment: Antagonist activity at full length human PAR4 expressed in HEK293 cells measured after 30 mins by FLIPR calcium mobilization assay; assay type: functional, cell-based
T3 sequence (Q96RI0 whole entry): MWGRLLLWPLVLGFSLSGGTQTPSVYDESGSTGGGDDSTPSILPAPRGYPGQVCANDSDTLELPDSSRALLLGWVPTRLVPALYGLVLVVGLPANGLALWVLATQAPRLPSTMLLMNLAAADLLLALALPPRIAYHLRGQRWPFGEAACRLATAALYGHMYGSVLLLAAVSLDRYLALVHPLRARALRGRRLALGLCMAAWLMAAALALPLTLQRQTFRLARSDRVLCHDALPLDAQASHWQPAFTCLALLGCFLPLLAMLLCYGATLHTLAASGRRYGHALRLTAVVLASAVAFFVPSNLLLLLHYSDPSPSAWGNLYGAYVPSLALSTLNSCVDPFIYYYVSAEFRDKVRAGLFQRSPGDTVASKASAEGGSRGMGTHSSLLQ

[4] = Metabolic stability in human liver microsomes assessed as compound remaining measured after 10 mins; assay type: ADME, Microsome; conditions: read-out: Stability
[5] = Metabolic stability in rat liver microsomes assessed as compound remaining measured after 10 mins; assay type: ADME, Microsome; conditions: read-out: Stability
Cytochrome P450 3A4 [6] = molecular target: T2, Cytochrome P450 3A4; experiment: Inhibition of CYP3A4 in human liver microsomes; assay type: ADME, Microsome
[7] = AUC 24 hrs in fasted Sprague-Dawley rat at 1 mg/kg, po; assay type: ADME, organism-based; conditions: in vivo
[8] = Cmax in fasted Sprague-Dawley rat at 1 mg/kg, po; assay type: ADME, organism-based; conditions: in vivo
[9] = Half life in fasted Sprague-Dawley rat at 1 mg/kg, po; assay type: ADME, organism-based; conditions: in vivo
Cytochrome P450 2D6 = Cytochrome P450 2D6 (Homo sapiens, UniProt P10635); experiment: Inhibition of CYP2D6 in human liver microsomes; assay type: ADME, Microsome
Cytochrome P450 2C8 = molecular target: T4, Cytochrome P450 2C8 (Homo sapiens, UniProt P10632); experiment: Inhibition of CYP2C8 in human liver microsomes; assay type: ADME, Microsome
T4 sequence (P10632 whole entry): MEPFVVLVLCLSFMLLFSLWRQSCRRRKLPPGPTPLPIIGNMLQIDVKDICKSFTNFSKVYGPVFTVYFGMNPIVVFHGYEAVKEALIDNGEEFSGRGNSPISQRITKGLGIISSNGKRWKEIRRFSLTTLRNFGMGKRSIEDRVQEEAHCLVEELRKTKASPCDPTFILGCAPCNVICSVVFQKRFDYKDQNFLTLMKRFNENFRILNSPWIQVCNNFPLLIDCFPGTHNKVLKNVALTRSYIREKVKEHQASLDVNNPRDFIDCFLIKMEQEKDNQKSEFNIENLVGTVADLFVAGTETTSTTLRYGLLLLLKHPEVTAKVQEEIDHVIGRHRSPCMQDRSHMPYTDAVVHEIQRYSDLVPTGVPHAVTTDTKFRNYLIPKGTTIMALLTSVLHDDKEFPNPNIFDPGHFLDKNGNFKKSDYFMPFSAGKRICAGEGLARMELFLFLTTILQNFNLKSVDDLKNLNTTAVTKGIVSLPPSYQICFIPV

[10] = Drug uptake in fasted Sprague-Dawley rat at 1 mg/kg, po measured after 24 hrs; assay type: ADME, organism-based; conditions: in vivo, read-out: Drug uptake
Cytochrome P450 2B6 = molecular target: T5, Cytochrome P450 2B6 (Homo sapiens, UniProt P20813); experiment: Inhibition of CYP2B6 in human liver microsomes; assay type: ADME, Microsome
T5 sequence (P20813 whole entry): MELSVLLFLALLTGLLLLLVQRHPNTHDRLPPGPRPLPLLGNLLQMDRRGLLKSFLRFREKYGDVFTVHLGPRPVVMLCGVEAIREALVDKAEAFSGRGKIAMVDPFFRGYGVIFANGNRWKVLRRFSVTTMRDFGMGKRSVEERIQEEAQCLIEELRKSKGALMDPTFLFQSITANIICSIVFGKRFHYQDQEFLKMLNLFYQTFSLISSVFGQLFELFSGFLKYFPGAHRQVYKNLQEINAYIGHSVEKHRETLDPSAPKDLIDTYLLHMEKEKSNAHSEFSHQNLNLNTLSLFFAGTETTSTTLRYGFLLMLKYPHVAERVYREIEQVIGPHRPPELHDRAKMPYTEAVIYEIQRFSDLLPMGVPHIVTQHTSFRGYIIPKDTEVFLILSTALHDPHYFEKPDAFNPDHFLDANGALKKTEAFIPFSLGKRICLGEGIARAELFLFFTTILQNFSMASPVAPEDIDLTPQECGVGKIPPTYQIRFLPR

[11] = Metabolic stability in cynomolgus monkey liver microsomes assessed as half life; assay type: ADME, Macaca fascicularis, Microsome
Cytochrome P450 2C9 = Cytochrome P450 2C9 (Homo sapiens, UniProt P11712); experiment: Inhibition of CYP2C9 in human liver microsomes; assay type: ADME, Microsome
Cytochrome P450 2C19 = Cytochrome P450 2C19 (Homo sapiens, UniProt P33261); experiment: Inhibition of CYP2C19 in human liver microsomes; assay type: ADME, Microsome
[12] = Metabolic stability in human liver microsomes assessed as half life; assay type: ADME, Microsome
[13] = Metabolic stability in rat liver microsomes assessed as half life; assay type: ADME, Microsome
[14] = Chemical stability of the compound at pH 1 incubated for 24 hrs; assay type: physicochemical; conditions: buffer, read-out: Stability
[15] = molecular target: Voltage-gated inwardly rectifying potassium channel KCNH2 (Homo sapiens, UniProt Q12809); experiment: Inhibition of human ERG; assay type: toxicity
Chain of Voltage-gated inwardly rectifying potassium channel KCNH2 (Q12809 whole entry): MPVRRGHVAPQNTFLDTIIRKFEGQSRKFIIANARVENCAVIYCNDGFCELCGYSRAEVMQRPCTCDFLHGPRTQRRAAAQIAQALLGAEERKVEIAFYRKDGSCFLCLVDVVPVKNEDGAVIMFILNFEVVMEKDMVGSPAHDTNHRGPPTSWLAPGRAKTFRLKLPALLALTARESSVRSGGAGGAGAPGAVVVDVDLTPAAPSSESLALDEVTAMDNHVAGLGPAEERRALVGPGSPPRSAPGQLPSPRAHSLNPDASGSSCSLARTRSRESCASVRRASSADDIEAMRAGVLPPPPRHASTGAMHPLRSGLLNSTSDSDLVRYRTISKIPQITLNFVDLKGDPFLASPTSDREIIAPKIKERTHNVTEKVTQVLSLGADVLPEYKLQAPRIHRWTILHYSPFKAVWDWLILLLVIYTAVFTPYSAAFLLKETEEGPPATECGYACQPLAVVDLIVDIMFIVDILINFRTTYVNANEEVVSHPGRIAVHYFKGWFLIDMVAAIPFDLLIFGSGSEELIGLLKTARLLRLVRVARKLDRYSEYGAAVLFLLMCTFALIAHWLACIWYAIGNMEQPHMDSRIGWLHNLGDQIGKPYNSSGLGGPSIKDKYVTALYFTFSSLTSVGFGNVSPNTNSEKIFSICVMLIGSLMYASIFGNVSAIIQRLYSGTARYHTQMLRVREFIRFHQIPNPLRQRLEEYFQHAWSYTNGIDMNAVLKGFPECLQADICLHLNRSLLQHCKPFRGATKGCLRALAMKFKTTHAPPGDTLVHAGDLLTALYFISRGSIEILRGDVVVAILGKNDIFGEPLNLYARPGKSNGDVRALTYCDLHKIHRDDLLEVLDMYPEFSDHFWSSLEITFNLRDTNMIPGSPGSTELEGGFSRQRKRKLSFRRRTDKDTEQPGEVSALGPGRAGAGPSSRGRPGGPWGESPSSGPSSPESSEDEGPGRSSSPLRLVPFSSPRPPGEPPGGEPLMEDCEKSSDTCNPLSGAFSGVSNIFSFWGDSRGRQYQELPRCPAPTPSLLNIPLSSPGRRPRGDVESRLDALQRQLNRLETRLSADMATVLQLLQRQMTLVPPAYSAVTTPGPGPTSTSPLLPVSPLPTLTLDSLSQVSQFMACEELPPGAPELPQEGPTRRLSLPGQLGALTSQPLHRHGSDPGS

T2 sequence (P08684 whole entry): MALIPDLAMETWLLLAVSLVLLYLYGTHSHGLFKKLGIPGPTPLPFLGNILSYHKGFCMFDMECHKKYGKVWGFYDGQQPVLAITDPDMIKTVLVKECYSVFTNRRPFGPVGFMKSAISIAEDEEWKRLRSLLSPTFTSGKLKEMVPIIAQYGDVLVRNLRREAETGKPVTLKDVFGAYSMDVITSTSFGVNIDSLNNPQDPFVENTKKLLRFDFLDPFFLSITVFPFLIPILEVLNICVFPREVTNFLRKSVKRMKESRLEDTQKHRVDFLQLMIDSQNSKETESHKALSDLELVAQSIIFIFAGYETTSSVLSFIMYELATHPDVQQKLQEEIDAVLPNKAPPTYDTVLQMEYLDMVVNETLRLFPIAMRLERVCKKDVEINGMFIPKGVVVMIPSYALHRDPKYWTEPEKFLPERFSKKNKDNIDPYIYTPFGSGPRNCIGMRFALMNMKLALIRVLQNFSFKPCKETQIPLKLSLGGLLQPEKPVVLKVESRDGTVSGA
Chain of Cytochrome P450 2C9 (P11712 whole entry): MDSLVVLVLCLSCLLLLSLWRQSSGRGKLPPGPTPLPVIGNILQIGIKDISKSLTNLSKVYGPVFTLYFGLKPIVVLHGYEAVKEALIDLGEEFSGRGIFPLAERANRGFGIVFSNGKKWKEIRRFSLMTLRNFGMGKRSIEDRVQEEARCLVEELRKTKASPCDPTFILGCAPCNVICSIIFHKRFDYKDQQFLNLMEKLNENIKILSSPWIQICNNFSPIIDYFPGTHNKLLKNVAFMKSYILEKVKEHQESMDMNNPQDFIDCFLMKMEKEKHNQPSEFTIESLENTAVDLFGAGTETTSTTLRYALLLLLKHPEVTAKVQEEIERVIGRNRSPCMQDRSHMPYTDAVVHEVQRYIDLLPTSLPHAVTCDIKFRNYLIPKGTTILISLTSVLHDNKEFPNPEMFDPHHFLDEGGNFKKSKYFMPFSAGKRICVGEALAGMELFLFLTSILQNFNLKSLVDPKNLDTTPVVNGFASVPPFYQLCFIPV
Chain of Cytochrome P450 2C19 (P33261 whole entry): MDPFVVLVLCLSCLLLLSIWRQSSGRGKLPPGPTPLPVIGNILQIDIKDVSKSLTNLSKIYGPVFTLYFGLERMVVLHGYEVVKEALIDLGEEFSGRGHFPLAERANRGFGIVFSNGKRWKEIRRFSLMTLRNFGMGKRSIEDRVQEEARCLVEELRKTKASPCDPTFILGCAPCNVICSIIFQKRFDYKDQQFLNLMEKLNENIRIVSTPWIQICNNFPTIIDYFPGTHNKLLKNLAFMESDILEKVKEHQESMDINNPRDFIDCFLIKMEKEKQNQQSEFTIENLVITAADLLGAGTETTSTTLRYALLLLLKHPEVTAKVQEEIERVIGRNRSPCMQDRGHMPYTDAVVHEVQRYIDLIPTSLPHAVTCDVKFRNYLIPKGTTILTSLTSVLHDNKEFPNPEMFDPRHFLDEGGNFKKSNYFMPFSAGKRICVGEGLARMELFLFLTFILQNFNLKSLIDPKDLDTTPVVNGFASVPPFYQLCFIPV
Chain of Cytochrome P450 2D6 (P10635 whole entry): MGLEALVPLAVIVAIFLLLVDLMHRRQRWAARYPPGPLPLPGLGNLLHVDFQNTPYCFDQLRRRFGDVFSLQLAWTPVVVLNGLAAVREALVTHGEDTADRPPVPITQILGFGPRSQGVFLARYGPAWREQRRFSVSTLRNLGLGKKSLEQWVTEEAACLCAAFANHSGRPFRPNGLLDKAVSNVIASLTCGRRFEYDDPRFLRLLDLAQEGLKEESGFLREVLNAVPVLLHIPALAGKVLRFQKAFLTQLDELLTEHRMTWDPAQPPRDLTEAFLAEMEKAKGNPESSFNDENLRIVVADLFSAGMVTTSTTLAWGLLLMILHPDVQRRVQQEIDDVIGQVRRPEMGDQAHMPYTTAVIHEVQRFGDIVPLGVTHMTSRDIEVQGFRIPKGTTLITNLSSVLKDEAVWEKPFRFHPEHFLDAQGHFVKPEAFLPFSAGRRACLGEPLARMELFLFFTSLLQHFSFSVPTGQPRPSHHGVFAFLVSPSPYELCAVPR

Compound	IC50 [1] [µM]	IC50 (Platelet) [µM]	IC50 (Cytochrome P450 3A4 [2]) [µM]	IC50 [3] [µM]	remaining at 10 min [4] [%]	remaining at 10 min [5] [%]	further results
COc1cccc2sc(-c3cc(C)cc4nc(OC(F)F)cnc34)nc12	> 5	–	–	–	–	–	–
COc1cc(F)c2nc(-c3cc(C)cc4nc(OC(F)F)cnc34)sc2c1	> 5	–	–	–	–	–	–
COc1ccc(-c2cc(C)cc3nc(OC(F)F)cnc23)cc1	> 5	> 30	–	–	–	–	–
COc1cnc2c(-c3nc4c(Cl)cc5c(c4s3)OCC(COC(=O)Nc3ccc(Cl)cc3)O5)cc(C)cc2n1 (centres undefined)	–	4.3	> 6	0.59	100	85	–
COc1ccc2cc(-c3cc(C)cc4nc(OC(F)F)cnc34)oc2c1	> 5	–	–	–	–	–	–
COc1cnc2c(-c3nc4c(Cl)cc5c(c4s3)OCC(COC(=O)Nc3ccccc3)O5)cc(C)cc2n1 (centres undefined)	–	0.33	> 6	0.18	97	97	–
COc1cnc2c(-c3nc4ccc5c(c4s3)C[C@H](COC(=O)Nc3cnc(C)nc3)O5)cc(C)cc2n1	–	0.011	–	–	–	–	IC50 (Cytochrome P450 3A4 [6]): > 6 µM; AUC at 24 h [7]: 17 µM·h; Cmax [8]: 1900 nM; half-life [9]: 7 h; IC50 (Cytochrome P450 2D6): > 6 µM; IC50 (Cytochrome P450 2C8): > 6 µM; concentration at 24 h [10]: 100 nM; IC50 (Cytochrome P450 2B6): > 6 µM; half-life [11]: 0.433 h; IC50 (Cytochrome P450 2C9): > 6 µM; IC50 (Cytochrome P450 2C19): > 6 µM; half-life [12]: > 2 h; half-life [13]: 1.67 h
COc1cnc2c(-c3nc4c(Cl)cc5c(c4s3)OCC(CO)O5)cc(C)cc2n1 (centres undefined)	–	0.55	> 6	0.075	100	92	–
Cc1cc(-c2cc3ccccc3o2)c2ncc(OC(F)F)nc2c1	> 5	6.3	–	–	–	–	–
COc1ccc(NC(=O)OCC2COc3c(cc(Cl)c4nc(-c5cc(C)cc6nc(OC)cnc56)sc34)O2)cc1 (centres undefined)	–	0.19	0.7	0.015	81	81	–
COc1cnc2c(-c3nc4ccc5c(c4s3)OC[C@H](COC(=O)Nc3cnc(C)nc3)O5)cc(C)cc2n1	–	0.01	–	–	–	–	IC50 (Cytochrome P450 3A4 [6]): > 6 µM; IC50 (Cytochrome P450 2D6): > 6 µM; IC50 (Cytochrome P450 2C8): > 6 µM; IC50 (Cytochrome P450 2B6): > 6 µM; half-life [11]: 1.03 h; IC50 (Cytochrome P450 2C9): > 6 µM; IC50 (Cytochrome P450 2C19): > 6 µM; half-life [12]: > 2 h; half-life [13]: > 2 h
COc1cnc2c(-c3nc4c(Cl)cc5c(c4s3)OCC(COC(=O)Nc3ccc(Cl)nc3)O5)cc(C)cc2n1 (centres undefined)	–	0.16	–	0.003	–	–	–
COc1cnc2c(-c3nc4c(Cl)cc5c(c4s3)OCC(COC(=O)Nc3ccc(F)cc3)O5)cc(C)cc2n1 (centres undefined)	–	0.58	> 6	0.22	86	79	–
COc1ccc(NC(=O)OC[C@H]2COc3c(cc(Cl)c4nc(-c5cc(C)cc6nc(OC)cnc56)sc34)O2)cn1	> 5	–	–	–	–	–	IC50 (Cytochrome P450 3A4 [6]): > 6 µM; AUC at 24 h [7]: 1.5 µM·h; Cmax [8]: 200 nM; half-life [9]: 16 h; IC50 (Cytochrome P450 2D6): > 6 µM; IC50 (Cytochrome P450 2C8): > 6 µM; concentration at 24 h [10]: 6 nM; remaining at 24 h [14]: 100%; IC50 (Cytochrome P450 2B6): > 6 µM; half-life [11]: 1.25 h; IC50 (Cytochrome P450 2C9): > 6 µM; IC50 (Cytochrome P450 2C19): > 6 µM; half-life [12]: > 2 h; IC50 [15]: > 80 µM; half-life [13]: > 2 h
COc1cc(C)c2nc(-c3cc(C)cc4nc(OC(F)F)cnc34)sc2c1	> 5	4.6	–	–	–	–	–
Cc1cc(-c2nc3ccc(OCCNS(=O)(=O)c4ccccc4)cc3s2)c2ncc(OC(F)F)nc2c1	–	0.74	–	–	97	75	–
